Data reported in article PMC5007552, “The hVps34‐SGK3 pathway alleviates sustained PI3K/Akt inhibition by stimulating mTORC1 and tumour growth” (The EMBO Journal, 2016).

Assays:
[1] = molecular target: MLK1 (Homo sapiens, UniProt P80192); experiment: IC50 on recombinant MLK1; type: biochemical; settings: Fig 5B / Appendix Fig S1B, recombinant kinase, unit inferred
Protocol: (§1) The result for each kinase is presented as a mean kinase activity of the reaction taken in triplicate relative to a control reaction where the inhibitors were omitted. […] SGK3 was immunoprecipitated from cell lysates and subjected to in vitro kinase assay by measuring phosphorylation of the Crosstide substrate peptide in the presence of 0.1 mM [γ‐^32P]ATP in a 30 min 30°C reaction (upper panel). Kinase reactions are presented as means ± SD for triplicate reaction.
(§2) Appendix Figure S1. […] (A) Chemical struc tures of
(§3) Sano/f_i-14g, -14i and -14n compounds. (B) IC50 values of inhibitors on indicated recombinant k inases. […]

[2] = molecular target: S6K1 (Homo sapiens, UniProt P23443); experiment: IC50 on recombinant S6K1 (p70S6K); type: biochemical; settings: Fig 5B / Appendix Fig S1B, recombinant kinase, unit inferred
Protocol: as §1, §2, §3

[3] = molecular target: T1, SGK3 (Homo sapiens, UniProt Q96BR1); experiment: IC50 on recombinant SGK3; type: biochemical; settings: Fig 5B / Appendix Fig S1B, recombinant kinase, unit inferred
T1 sequence (Q96BR1 1-496): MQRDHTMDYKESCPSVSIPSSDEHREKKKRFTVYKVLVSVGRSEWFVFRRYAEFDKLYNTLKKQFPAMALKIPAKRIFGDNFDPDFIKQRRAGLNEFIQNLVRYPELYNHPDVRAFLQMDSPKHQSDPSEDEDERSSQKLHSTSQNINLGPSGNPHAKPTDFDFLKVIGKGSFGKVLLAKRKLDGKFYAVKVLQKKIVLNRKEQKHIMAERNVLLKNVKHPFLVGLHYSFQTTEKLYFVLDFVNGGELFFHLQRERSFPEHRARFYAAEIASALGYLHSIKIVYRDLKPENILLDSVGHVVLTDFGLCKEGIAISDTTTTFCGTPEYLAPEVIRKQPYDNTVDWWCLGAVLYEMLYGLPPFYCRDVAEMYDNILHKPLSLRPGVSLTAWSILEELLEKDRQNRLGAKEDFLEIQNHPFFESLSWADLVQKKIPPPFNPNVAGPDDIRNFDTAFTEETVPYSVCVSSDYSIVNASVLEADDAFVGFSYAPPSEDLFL
Protocol: as §1, §2, §3

[4] = molecular target: PKBa (Homo sapiens, UniProt P31749); experiment: IC50 on recombinant PKBa (Akt1); type: biochemical; settings: Fig 5B / Appendix Fig S1B, recombinant kinase, unit inferred
Protocol: as §1, §2, §3

[5] = molecular target: MLK3 (Homo sapiens, UniProt Q16584); experiment: IC50 on recombinant MLK3; type: biochemical; settings: Fig 5B / Appendix Fig S1B, recombinant kinase, unit inferred
Protocol: as §1, §2, §3

[6] = molecular target: T1, SGK3; experiment: Immunoprecipitated endogenous SGK3 kinase activity (Crosstide) and SGK3 phosphorylation from treated cells; type: cell-based; parameters: we immunoprecipitated endogenous SGK3 and assessed protein kinase activity; endogenous in cells; host or cells: ZR-75-1; settings: for SGK3 hydrophobic motif and T-loop phosphorylation and SGK3 kinase activity: ZR-75-1, 0.1 μM, with or without 5 days 1 μM MK-2206; for SGK3 hydrophobic motif and T-loop phosphorylation and SGK3 kinase activity / basal SGK3 activity and phosphorylation: 1 h; for elevated SGK3 kinase activity, T-loop and hydrophobic motif phosphorylation induced by prolonged Class I PI3K or Akt inhibitor treatment: ZR-75-1, 5 days PI3K/Akt inhibitor, then 1 μM VPS34-IN1 or 0.3 μM SAR405 for 1 h; for basal SGK3 activity and phosphorylation: ZR-75-1 in serum, 1 μM VPS34-IN1 or 0.3 μM SAR405
Protocol: Briefly, SGK3, Akt and S6K1 were immunoprecipitated from 1 mg ZR‐75‐1 cell lysate. Immunoprecipitates were washed in sequence with lysis buffer containing high salt concentration (500 mM NaCl), lysis buffer and Buffer A (50 mM Tris pH 7.5, 0.1 mM EGTA). Kinase activity was assessed by measuring [γ‐^32P]ATP incorporation into Crosstide substrate peptide [[…]]. The reactions were carried in 40 μl total volume containing 0.1 mM [γ‐^32P]ATP (400–1,000 cpm/pmol), 10 mM magnesium acetate and 30 μM Crosstide peptide. Reactions were terminated by adding 10 μl 0.1 M EDTA and spotting 40 μl of the resulting reaction mix on P81 paper, which were immediately immersed into 50 mM orthophosphoric acid. Papers were washed at least five times in 50 mM orthophosphoric acid, rinsed in acetone and air‐dried. Radioactivity was quantified by Cerenkov counting. One unit of enzyme activity was defined as amount of enzyme that catalyses incorporation of 1 nmol of [γ‐^32P]ATP into the substrate over 1 min.

[7] = tested on: NDRG1 phosphorylation in ZR-75-1 cells; experiment: Immunoblot of NDRG1 (Thr346) phosphorylation in breast cancer cells; type: cell-based, human; settings: for phosphorylation of PRAS40 (Thr246) and NDRG1 (Thr346): 1 μM, 1 h, ZR-75-1, CAMA-1 (and T47D for PI3K inhibitors); for concentration reducing NDRG1 phosphorylation to basal levels: ZR-75-1 pre-treated with 1 μM MK-2206 for 5 days, hVps34 inhibitor 1 h
Protocol: Cell lysates were subjected to immunoblot analysis with the indicated antibodies. • ZR‐75‐1 cells cultured in serum in the absence of Akt inhibitor were treated for 1 h with the indicated concentrations of VPS34‐IN1. […] One hour prior to lysis, the cells were incubated in the presence or absence of 1 μM VPS34‐IN1. SGK3 was immunoprecipitated from lysates and subjected to in vitro kinase assay by measuring phosphorylation of the Crosstide substrate peptide in the presence of 0.1 mM [γ‐^32P]ATP in a 30 min 30°C reaction (upper panel). Kinase reactions are presented as means ± SD for triplicate reaction. Immunoprecipitates (IP) and lysates were analysed by immunoblot with the indicated antibodies. […] SGK3 was immunoprecipitated from the lysates and subjected to in vitro kinase assay as in (C). Kinase reactions are presented as means ± SD for triplicate reaction. Immunoprecipitates (IP) and lysates (lower panel) were also subjected to immunoblot analysis with the indicated antibodies. • ZR‐75‐1 cells were cultured in the absence or presence of 1 μM MK‐2206 for 5 days. Cells were then treated in the absence or presence of 0.1 μM AZD8055 or 0.1 μM rapamycin for 1 h. SGK3 was immunoprecipitated and subjected to in vitro kinase assay as in (C). Kinase reactions are presented as means ± SD for triplicate reaction. The immunoprecipitates (IP) and lysates were analysed with the indicated antibodies.
One hour prior to lysis, the cells were incubated in the presence of absence of 0.3 μM SAR405. SGK3 was immunoprecipitated from lysates and subjected to in vitro kinase assay by measuring phosphorylation of the Crosstide substrate peptide in the presence of 0.1 mM [γ‐^32P]ATP in a 30 min 30°C reaction (upper panel). Kinase reactions are presented as means ± SD for triplicate reaction. Immunoprecipitates (IP) and lysates were also analysed by immunoblot with the indicated antibodies.
as §1
(§4) HEK293 cells were purchased from the American Tissue Culture Collection (ATCC). Cells were cultured in RPMI or DMEM media supplemented with 10% (v/v) foetal bovine serum, 2 mM L‐glutamine, 100 U/ml penicillin and 0.1 mg/ml streptomycin. Inhibitor treatments were carried out as described in figure legends. During 5 days inhibitor treatments, the media was changed after 72‐h intervals. The cells were lysed in buffer containing 50 mM Tris–HCl (pH 7.5), 150 mM NaCl, 1 mM EDTA, 1 mM EGTA, 1 mM sodium orthovanadate, 10 mM sodium glycerophosphate, 10 mM sodium pyrophosphate, 0.27 M sucrose, 0.1% (v/v) 2‐mercaptoethanol, 1 mM benzamidine and 0.1 mM PMSF. Lysates were clarified by centrifugation at 16,000 g for 10 min at 4°C. Protein concentration was calculated using Bradford assay (Thermo Scientific). Immunoblotting and immunoprecipitation were performed using standard procedures. The signal was developed using ECL Western Blotting Detection Kit (Amersham) on Amersham Hyperfilm ECL film (Amersham).

[8] = tested on: breast cancer cells that express high levels of SGK1; experiment: NDRG1 phosphorylation in breast cancer cells that express high levels of SGK1; type: cell-based; settings: data not shown
[9] = tested on: ZR-75-1 cells; experiment: Immunoblot of Akt/mTORC1 pathway markers (Akt, PRAS40, TSC2, S6K1, Rictor, S6, 4EBP1) in ZR-75-1 cells; type: cell-based, human; settings: for Akt phosphorylation and PRAS40 phosphorylation: ZR-75-1 in serum, hVps34 inhibitor 1 h
Protocol: Kinase reactions are presented as means ± SD for triplicate reaction. Immunoprecipitates (IP) were also analysed by immunoblot with the indicated antibodies. • SGK3 was knocked down in ZR‐75‐1 cells by using shRNA probe B and compared to a control shRNA probe, named sh scramble. After infection, the cells were kept for 2 days in puromycin selection media and then seeded for the experiment. The cells were treated with 1 μM MK‐2206 for 1 h or 5 days. The cell lysates were subjected to immunoblot analysis with the indicated antibodies.
The cell lysates were analysed by immunoblot using the antibody against phosphorylated Akt phosphorylation consensus motif (RxRxxpS/pT).
as §4

PKBa, sequence (P31749 whole entry): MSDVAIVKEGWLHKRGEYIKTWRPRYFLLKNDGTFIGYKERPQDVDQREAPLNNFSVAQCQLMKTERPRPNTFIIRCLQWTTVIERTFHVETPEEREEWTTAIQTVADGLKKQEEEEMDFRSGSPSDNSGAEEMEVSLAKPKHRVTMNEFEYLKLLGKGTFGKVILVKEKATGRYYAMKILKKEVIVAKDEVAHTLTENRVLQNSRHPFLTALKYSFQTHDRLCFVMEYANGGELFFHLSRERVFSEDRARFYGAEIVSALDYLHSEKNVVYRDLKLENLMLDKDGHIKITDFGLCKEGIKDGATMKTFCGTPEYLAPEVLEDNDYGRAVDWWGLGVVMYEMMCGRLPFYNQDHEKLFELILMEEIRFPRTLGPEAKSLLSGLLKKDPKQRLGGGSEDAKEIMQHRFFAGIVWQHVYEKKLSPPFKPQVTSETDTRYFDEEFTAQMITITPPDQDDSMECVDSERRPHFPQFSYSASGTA
S6K1, sequence (P23443 whole entry): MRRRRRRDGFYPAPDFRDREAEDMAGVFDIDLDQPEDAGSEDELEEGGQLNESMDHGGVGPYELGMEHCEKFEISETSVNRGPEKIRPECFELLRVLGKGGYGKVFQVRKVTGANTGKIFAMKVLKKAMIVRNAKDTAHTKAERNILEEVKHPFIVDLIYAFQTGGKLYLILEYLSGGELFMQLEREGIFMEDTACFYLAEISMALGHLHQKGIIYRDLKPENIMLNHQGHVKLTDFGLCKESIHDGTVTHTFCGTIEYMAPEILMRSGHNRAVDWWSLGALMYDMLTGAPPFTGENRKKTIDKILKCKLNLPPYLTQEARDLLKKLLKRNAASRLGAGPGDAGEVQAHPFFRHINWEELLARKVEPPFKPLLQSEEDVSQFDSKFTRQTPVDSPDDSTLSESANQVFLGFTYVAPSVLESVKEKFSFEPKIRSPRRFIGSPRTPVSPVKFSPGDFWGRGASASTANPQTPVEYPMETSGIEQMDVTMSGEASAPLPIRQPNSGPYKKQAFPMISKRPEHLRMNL
MLK1, sequence (P80192 whole entry, species assumed): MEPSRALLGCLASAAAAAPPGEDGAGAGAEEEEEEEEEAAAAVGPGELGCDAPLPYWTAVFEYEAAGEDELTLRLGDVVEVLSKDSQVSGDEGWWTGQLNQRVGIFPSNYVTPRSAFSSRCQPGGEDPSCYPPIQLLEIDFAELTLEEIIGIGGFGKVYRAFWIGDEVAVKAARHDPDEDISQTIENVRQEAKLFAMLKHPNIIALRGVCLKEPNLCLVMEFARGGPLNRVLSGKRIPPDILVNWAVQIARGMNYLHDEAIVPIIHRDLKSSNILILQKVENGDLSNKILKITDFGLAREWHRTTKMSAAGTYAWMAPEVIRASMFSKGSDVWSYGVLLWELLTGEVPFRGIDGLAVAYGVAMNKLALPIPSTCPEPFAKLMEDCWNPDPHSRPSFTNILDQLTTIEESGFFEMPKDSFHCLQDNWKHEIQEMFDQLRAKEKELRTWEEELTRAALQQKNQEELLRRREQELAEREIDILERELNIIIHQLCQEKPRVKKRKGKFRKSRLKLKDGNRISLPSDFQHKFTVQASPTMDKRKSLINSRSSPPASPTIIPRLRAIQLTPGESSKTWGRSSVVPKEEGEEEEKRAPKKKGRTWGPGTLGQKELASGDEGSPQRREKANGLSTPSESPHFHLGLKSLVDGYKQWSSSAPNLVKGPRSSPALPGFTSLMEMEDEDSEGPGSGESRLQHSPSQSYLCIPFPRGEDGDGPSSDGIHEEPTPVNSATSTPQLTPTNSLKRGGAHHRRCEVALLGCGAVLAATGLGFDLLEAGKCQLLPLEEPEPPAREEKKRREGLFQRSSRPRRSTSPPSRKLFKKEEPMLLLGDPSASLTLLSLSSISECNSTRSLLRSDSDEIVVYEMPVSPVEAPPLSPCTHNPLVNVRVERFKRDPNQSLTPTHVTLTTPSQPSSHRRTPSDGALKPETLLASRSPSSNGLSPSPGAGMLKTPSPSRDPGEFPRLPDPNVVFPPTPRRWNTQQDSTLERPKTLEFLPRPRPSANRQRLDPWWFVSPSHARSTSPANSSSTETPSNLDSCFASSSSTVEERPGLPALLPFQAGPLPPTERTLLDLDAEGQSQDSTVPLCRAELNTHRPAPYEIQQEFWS
MLK3, sequence (Q16584 whole entry, species assumed): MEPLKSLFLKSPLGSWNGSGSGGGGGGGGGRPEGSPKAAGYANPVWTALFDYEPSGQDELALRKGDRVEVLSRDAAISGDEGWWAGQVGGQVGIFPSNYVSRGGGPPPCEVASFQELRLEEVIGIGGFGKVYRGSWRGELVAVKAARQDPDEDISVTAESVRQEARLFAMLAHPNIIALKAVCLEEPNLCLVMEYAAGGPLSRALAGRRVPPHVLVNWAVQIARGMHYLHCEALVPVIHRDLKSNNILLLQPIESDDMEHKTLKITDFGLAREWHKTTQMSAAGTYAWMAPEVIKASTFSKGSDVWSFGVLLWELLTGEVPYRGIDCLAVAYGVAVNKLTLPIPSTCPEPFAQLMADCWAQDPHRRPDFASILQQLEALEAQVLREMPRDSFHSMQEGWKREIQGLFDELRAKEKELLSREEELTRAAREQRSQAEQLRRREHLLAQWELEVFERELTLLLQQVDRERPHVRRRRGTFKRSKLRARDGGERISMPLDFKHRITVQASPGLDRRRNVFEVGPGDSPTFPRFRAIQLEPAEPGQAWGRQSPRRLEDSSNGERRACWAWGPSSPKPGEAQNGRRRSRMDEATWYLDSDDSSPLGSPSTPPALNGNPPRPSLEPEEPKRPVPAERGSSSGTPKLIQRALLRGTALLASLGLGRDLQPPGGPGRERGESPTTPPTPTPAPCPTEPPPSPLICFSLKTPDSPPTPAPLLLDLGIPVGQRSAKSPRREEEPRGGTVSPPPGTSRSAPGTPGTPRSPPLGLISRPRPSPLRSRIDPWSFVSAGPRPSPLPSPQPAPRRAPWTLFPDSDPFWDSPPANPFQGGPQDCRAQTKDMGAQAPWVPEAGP

Nc1[nH]nc2nc(-c3ccc(NS(=O)(=O)c4cc(Cl)ccc4F)cc3)cnc12 [14n]
IC50 [1]: 169 nM
IC50 [2]: 76 nM
IC50 [3]: 13 nM
IC50 [4]: > 10 µM
IC50 [5]: 94 nM

COc1ccc(-c2ccc3c(N4CCOC[C@@H]4C)nc(N4CCOC[C@@H]4C)nc3n2)cc1CO [AZD8055]
SGK3 hydrophobic motif and T-loop phosphorylation and SGK3 kinase activity [6]: suppressed

Nc1cc(C(F)(F)F)c(-c2cc(N3CCOCC3)nc(N3CCOCC3)n2)cn1 [BKM120]
phosphorylation of PRAS40 (Thr246) and NDRG1 (Thr346) [7]: markedly suppressed

CCc1c(C(=O)NNC(=O)C(O)c2cc(F)cc(F)c2)ccc(O)c1C (stereo not shown) [EMD638683]
dose required to observe marginal reduction in NDRG1 phosphorylation [8]: 100 µM

CS(=O)(=O)N1CCN(Cc2cc3nc(-c4cccc5[nH]ncc45)nc(N4CCOCC4)c3s2)CC1 [GDC0941]
phosphorylation of PRAS40 (Thr246) and NDRG1 (Thr346) [7]: markedly suppressed

C[C@@H]1COCCN1c1cc(=O)n2c(n1)N(Cc1cncc(Cl)c1)[C@H](C(F)(F)F)CC2 [SAR405]
Akt phosphorylation and PRAS40 phosphorylation [9]: neither compound suppressed
elevated SGK3 kinase activity, T-loop and hydrophobic motif phosphorylation induced by prolonged Class I PI3K or Akt inhibitor treatment [6]: suppressed
basal SGK3 activity and phosphorylation [6]: to below control levels
concentration reducing NDRG1 phosphorylation to basal levels [7]: 0.3 µM

CC(C)(O)CNc1ncc(-c2ccnc(Nc3ccnc(Cl)c3)n2)c(CC2CC2)n1 [VPS34-IN1]
TSC2 or mTORC1 substrate phosphorylation ([9]; ZR-75-1, 1 μM VPS34-IN1 alone, 1 h): did not have an effect
Akt phosphorylation and PRAS40 phosphorylation [9]: neither compound suppressed
elevated SGK3 kinase activity, T-loop and hydrophobic motif phosphorylation induced by prolonged Class I PI3K or Akt inhibitor treatment [6]: suppressed
basal SGK3 activity and phosphorylation [6]: to below control levels
concentration reducing NDRG1 phosphorylation to basal levels [7]: 1 µM

CO[C@H]1C[C@@H]2CC[C@@H](C)[C@@](O)(O2)C(=O)C(=O)N2CCCC[C@H]2C(=O)O[C@H]([C@H](C)C[C@@H]2CC[C@@H](O)[C@H](OC)C2)CC(=O)[C@H](C)/C=C(\C)[C@@H](O)[C@@H](OC)C(=O)[C@H](C)C[C@H](C)/C=C/C=C/C=C/1C [rapamycin]
SGK3 hydrophobic motif and T-loop phosphorylation and SGK3 kinase activity [6]: had no effect
